Experimental data taken from US20230348917A1, “EXPRESSION VECTOR FOR USE IN METHANOTROPH” (priority 2020, published 2023).

Legend:
[1] = system: dTomato expression in M. trichosporium OB3b; assay: dTomato expression by fluorescence (microplate reader, FACS) in transconjugated M. trichosporium OB3b; assay type: cell-based, Methylosinus trichosporium OB3b; conditions: pAWP89S-Ptet-dTomato plasmid; aTc induction
Protocol: For analysis of the expression level by fluorescence, 200 μl was sampled in a 96-well plate and a Tecan microplate reader (excitation: 535 nm, emission: 590 nm) was used. FACS analysis was performed using BD Biosciences FACSCalibur equipment (excitation: 488 nm, emission: 585 nm).
M. trichosporium OB3b transconjugated with the pAWP89S-Ptet-dTomato plasmid was treated with anhydrotetracycline (aTc) at 0 μM, 0.5 μM, 1 μM, or 2 μM, respectively, to induce expression, and the expression of the fluorescent protein dTomato was examined for 8 days. The experiment was performed by the method of Experimental Example 3 above.

[2] = system: M. capsulatus Bath with the pAWP89S-Po-dTomato plasmid; conditions: 0.5 mM benzene, 24 hours
Protocol: It was confirmed whether dTomato could be induced with benzene under sMMO expression conditions (copper-deficient medium).
The M. capsulatus Bath with the pAWP89S-Po-dTomato plasmid were cultured under sMMO expression condition (copper-deficient medium) and pMMO expression condition (copper-containing medium) while supplying 0.5 mM benzene for 24 hours. A strain supplied with 10 μM of phenol was used as a control group.

M. capsulatus Bath [3] = assay: Toxicity test of isoprene and epoxy isoprene (growth assay); assay type: cell-based, Methylococcus capsulatus Bath; conditions: various concentrations of isoprene, or 1.35 and 13.5 mg/L epoxyisoprene; for growth of the strain expressing sMMO: absence of copper; for growth of the cells expressing pMMO: presence of copper
Protocol: To analyze the toxicity of isoprene and epoxyisoprene using wild-type strains, 2 mL cultures were transferred to 150 mL serum bottle containing 19 ml NMS medium with or without 10 μM CuCl2. After incubation for 6.5 to 7.5 hours, an appropriate amount of isoprene or epoxy isoprene (2-methyl-2-vinyloxirane) diluted in dodecane was added. The bottle was sealed, 50% of the headspace was replaced with methane, and the bottle was further incubated. Sampling of 1 mL cultures for cell density measurement was performed at appropriate time intervals using a disposable syringe without reopening the bottle.
To examine the potential toxicity of isoprene produced in M. capsulatus Bath, growth assays were performed in the presence of various concentrations of isoprene while regulating the expression of sMMO and pMMO enzymes by controlling the addition of copper.
In addition, in order to examine whether the growth inhibition of the strain was due to the oxidation of isoprene by sMMO, the strain growth was analyzed in the presence of 1.35 and 13.5 mg/L of epoxyisoprene, an oxidation product of isoprene. As a result, it was confirmed that the growth of both the sMMO-expressing strain and the pMMO-expressing strain were reduced depending on the concentration of the epoxy isoprene treated above ((d) and (e) in FIG. 17).

[4] = system: dTomato expression in M. capsulatus Bath; assay: dTomato expression by fluorescence in transconjugated M. capsulatus Bath; assay type: cell-based, Methylococcus capsulatus Bath; conditions: pAWP89S-Po-dTomato plasmid; 10 μM phenol
Protocol: (§1) The transconjugated M. capsulatus Bath and M. trichosporium OB3b were inoculated by 10% in NMS medium containing 25 μg/ml kanamycin and 10 μM CuCl2. For the methanotrophs transconjugated with the pAWP89S-Po-dTomato, 10 μM of phenol was contained in the medium. After sealing, 50% methane gas was substituted in the headspace. The recombinant M. capsulatus Bath was cultured at 37° C. for 24 hours or 44 to 48 hours, and therecombinant M. trichosporium OB3b was cultured at 30° C.

M. capsulatus Bath [5] = conditions: pAWP89S-Po-dTomato strain; 100 μM phenol compared with 10 μM phenol
Protocol: as §1

Cc1c2c(c(O)c3c(O)cccc13)C(=O)[C@]1(O)C(=O)C(C(N)=O)=C(O)[C@@H](N(C)C)[C@@H]1C2 [aTc, anhydrotetracycline]
FACS distribution of dTomato fluorescence of individual cells [1]: two peaks were formed
time required for expression to be most active [1]: about 8 days

c1ccccc1 [benzene]
dTomato expression (fluorescence value) ([2]; pMMO expression condition (copper-containing medium)): relatively small fluorescence value
dTomato expression ([2]; sMMO expression condition (copper-deficient medium)): highly induced

C=CC1(C)CO1 (stereo not shown) [epoxyisoprene, 2-methyl-2-vinyloxirane]
growth of the strain expressing sMMO (M. capsulatus Bath [3]): reduced
growth of the cells expressing pMMO (M. capsulatus Bath [3]): reduced

C=CC(=C)C [isoprene]
growth of the strain expressing sMMO (M. capsulatus Bath [3]): reduced
growth of the cells expressing pMMO (M. capsulatus Bath [3]): unaffected

Oc1ccccc1 [phenol]
time after phenol supply at which fluorescence due to dTomato expression was observed [4]: 5 h
strain growth (M. capsulatus Bath [5]): inhibited
